Results as given in US7964598B2 (The J. David Gladstone Institutes, priority 1995, dated 2011).
“Also recorded” adds a separate entry of the source.

Test system: apoE4 enhancement of Aβ production
Experiment: Aβ production assay, B103-APP cells incubated with apoE4
Assay type: cell-based, rat
Method: Aβ production assay. Stable neuroblastoma B103 cell lines transfected with a wildtype hAPP cDNA construct (B 103-APP) were selected by growing them in Dulbecco's modified Eagle's medium (DMEM) containing 10% fetal calf serum (FBS) and 400 μg/ml G418. A cell line expressing APP at similar levels in mouse brains has been identified by RNase protection assay (RPA) and was used in the studies described below. To determine Aβ production, B103-APP cells were incubated with serum-free minimal essential medium (MEM) containing N2 supplements with or without apoE isoforms for 24 h at 37° C. After incubation, 50 μl of medium was collected and assayed for Aβ levels with an ELISA method. The cells were lysed, and cellular proteins were determined by the Lowry method. AP production was normalized to cellular protein.
Cell Culture. Rat neuroblastoma B103 cells stably expressing human wildtype APP (hAPP695wt) (Xu et al. ((1999) Proc. Natl. Acad. Sci. USA 96:7547-7552; Esposito, et al. (2004) J. Neurochem. 91:1260-1274) were generated in Dr. Lennart Mucke's laboratory at the Gladstone Institute of Neurological Disease and maintained in Dulbecco's modified Eagle's medium (DMEM) (GIBCO, Grand Island, N.Y.) containing 400 μg/ml G418, 10% fetal bovine serum, and 5% horse serum at 37° C. Twenty-four hours after plating into 48-well plates (1×10^5 cells per well), cells were washed twice with serum-free DMEM and cultured for another 24 h in DMEM containing 1% N-2 supplement (GIBCO) to induce differentiation. The cells were treated with either β-VLDL (25 μg/ml cholesterol), recombinant human apoE isoform-enriched β-VLDL (7.5 μg/ml apoE and 25 μg/ml cholesterol), or recombinant human apoE (7.5 μg/ml apoE) in fresh DMEM containing 1% N-2 supplement for an additional 24 h. In some experiments, RAP (25 nM or 1 μM) was added to the cells 1 h before apoE treatment.
Aβ Assay. Aβ secreted into the medium was detected with a sandwich enzyme-linked immunosorbent assay (ELISA), using mAb 266 as a capturing antibody and 3D6 as a detecting antibody, as described. Johnson-Wood et al. ((1997) Proc. Natl. Acad. Sci. USA 94:1550-1555). Aβ was quantified from a standard curve (Aβ42; Bachem, Torrance, Calif.) and normalized by total cellular protein.

## O=S(=O)([O-])c1ccc2c(c1)c(Nc1ccc(S(=O)(=O)O)cc1)cc1c2nc2ccccc2[n+]1-c1ccccc1 [GIND-25, azocarmine-G]
FIG. 22
  apoE4 enhancement of Aβ production: abolished completely
Compound 5 μM preincubated with apoE 7.5 μg/ml 30 min, then 24 h with cells, FIG. 27D
  enhancement of Aβ production by apoE4: abolish; also recorded: decreased Aβ production induced by apoE4 to levels similar to those induced by apoE3
